Data: PubChem BioAssay (NCI)
“And” between values parts separate entries of the source, which are not always exact repeats. Identical values can stand only once.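 These data come from cells grown in 96-well plates and exposed to compound for 48 hours at five concentrations. Abbreviation: GI50, concentration required for 50% inhibition of growth. TGI denotes the concentration required for complete inhibition of growth.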

Legend:
Experiment in all cases: NCI tumour cell line growth inhibition, 48 h
[1] = system: OVCAR-4 ovarian
[2] = system: DMS 273 small cell lung
[3] = system: M19-MEL melanoma
[4] = system: LXFL 529 NSCLC
[5] = system: KM20L2 colon
[6] = system: SNB-78 CNS
[7] = system: DMS 114 small cell lung
[8] = system: XF 498 CNS
[9] = system: HOP-18 NSCLC
[10] = system: P388/ADR leukemia
[11] = system: SN12K1 renal
[12] = system: DLD-1 colon
[13] = system: P388 leukemia
[14] = system: RXF-631 renal

O=C1CCc2ccc(O)c(c2)Oc2ccc(cc2)C(Sc2ccccc2)CCO1 (configuration not stated)
TGI [1]: 26.1 µM

CN(C)c1c(C2OC(CO)C(O)C2O)c(=O)c1=O (configuration not stated)
TGI [1]: > 100 µM

S=c1ncc2c([nH]1)C1c3ccccc3C2c2ccccc21
TGI [2]: > 100 µM | TGI [3]: > 100 µM | TGI [4]: > 100 µM | TGI [5]: > 100 µM | TGI [1]: > 100 µM | TGI [6]: > 100 µM | TGI [7]: > 100 µM

Cc1ccc2c(=O)cc(-c3ccc(C)s3)[nH]c2n1
TGI [1]: > 100 µM

COC(C)(C)/C=C/c1[nH]c2ccccc2c1CC(=O)NCCc1cn(C(c2ccccc2)(c2ccccc2)c2ccccc2)cn1
TGI [1]: > 100 µM

Cc1cccc2sc(-c3ccc(O)cc3)nc12
TGI [1]: 29.5 µM

CC(C)(Cl)C(Br)CCC(Br)(CCl)C(Cl)CBr (configuration not stated)
TGI [1]: > 10 µM

CCCCCc1c(CCCC)c(=O)[nH]c2nc(NC(=O)CCCC)ccc12
TGI [1]: > 100 µM

Cn1c2ccccc2c(=O)c2c(O)cc3c(c21)C=CC(C)(C)O3
TGI [2]: > 25 µM | TGI [8]: > 25 µM | TGI [9]: > 25 µM | TGI [3]: > 25 µM | TGI [10]: > 25 µM | TGI [5]: > 25 µM | TGI [11]: > 25 µM | TGI [12]: > 25 µM | TGI [1]: > 25 µM | TGI [13]: > 25 µM | TGI [6]: > 25 µM | TGI [7]: > 25 µM

CC1=C(O)c2ccccc2C(=O)C1=O
TGI [1]: > 100 µM

COc1ccc(COC(=O)NCC(=O)NC(C)C(=O)NC(Cc2ccccc2)C(=O)OCc2ccccc2)cc1 (configuration not stated)
TGI [1]: 41.2 µM and 95.1 µM

CCC1(c2ccc(N3C(=O)c4cc(OC)c(OC)cc4C3=O)cc2)CCC(=O)NC1=O (configuration not stated)
TGI [1]: > 10 µM

COc1ccc(N=NC(=O)NC(CC(C)C)C(=O)NCC(=O)O)cc1 (configuration not stated)
TGI [1]: > 100 µM

C/C(=N\NC(=O)c1ccccc1O)c1cccc(/C(C)=N/NC(=O)c2ccccc2O)n1.O=S(=O)([O-])[O-].[Fe+2]
GI50 [2]: 46.4 µM | TGI [2]: > 100 µM | TGI [8]: > 100 µM | GI50 [3]: > 100 µM | TGI [3]: > 100 µM | GI50 [5]: > 100 µM | TGI [5]: > 100 µM | GI50 [12]: > 100 µM | TGI [12]: > 100 µM | GI50 [1]: > 100 µM | TGI [1]: > 100 µM | GI50 [6]: > 100 µM | TGI [6]: > 100 µM | TGI [7]: > 100 µM

CCOc1ccccc1N=Nc1c(-c2ccccc2)nn(C(=O)CC(=O)Nc2cccc(C)c2)c1-c1ccccc1
TGI [2]: > 100 µM | TGI [8]: > 100 µM | TGI [9]: > 100 µM | TGI [3]: > 100 µM | TGI [4]: > 100 µM | TGI [14]: > 100 µM | TGI [5]: > 100 µM | TGI [12]: > 100 µM | TGI [1]: > 100 µM | TGI [6]: > 100 µM | TGI [7]: > 100 µM

CC(=O)NC(NCCN)(c1ccccc1)c1ccccc1
TGI [1]: > 100 µM

C/C=C1\CN2CCc3c([nH]c4ccccc34)C2CC1CCO (configuration not stated)
TGI [2]: > 100 µM | TGI [8]: > 100 µM | TGI [9]: > 100 µM | TGI [3]: > 100 µM | TGI [4]: > 100 µM | TGI [14]: > 100 µM | TGI [5]: > 100 µM | TGI [12]: > 100 µM | TGI [1]: > 100 µM | TGI [6]: > 100 µM | TGI [7]: > 100 µM

O=C1Nc2nccnc2C(=O)N2CCC[C@@H]12
TGI [1]: > 100 µM

Cc1cc(=O)oc2cc(OCC(O)COC(C)C)ccc12 (configuration not stated)
TGI [1]: > 100 µM

Cc1cc2nc3ccccc3n2c2nc(N)ccc12
TGI [1]: > 100 µM

CCN(CC)CCN(C)c1ccc(CO)c2c1C(=O)c1ccccc1S2=O (configuration not stated)
TGI [1]: 11.7 µM

COc1cccc(/C=C2\S/C(=N/Nc3nc(C)c(C)s3)NC2=O)c1O
TGI [1]: > 100 µM

CCOP(=O)(OCC)C(NC(=O)C(C(F)(F)F)C(F)(F)F)c1ccccc1 (configuration not stated)
TGI [1]: > 100 µM

COc1cc(C2(c3ncc[nH]3)SSSCC2O)ccc1O (configuration not stated)
TGI [2]: > 100 µM | TGI [8]: > 100 µM | TGI [9]: > 100 µM | TGI [3]: > 39.6 µM | TGI [10]: > 54.8 µM | TGI [5]: > 100 µM | TGI [11]: > 55.4 µM | TGI [12]: > 100 µM | TGI [1]: > 63.7 µM | TGI [13]: > 48.1 µM | TGI [6]: > 100 µM | TGI [7]: 52.2 µM

Clc1ccc(CCN[C@H]2CCCC[C@H]2N2CCCC2)cc1Cl
TGI [1]: 89.4 µM

C=C1C(=O)O[C@H]2C1C[C@@H](OC(C)=O)/C(C)=C/CC[C@@]1(C)O[C@H]21 (some centres not stated)
TGI [1]: 28.9 µM

CC(C)CC(N)C(=O)Nc1ccc2ccccc2c1 (configuration not stated)
TGI [1]: 54.5 µM

COc1ccccc1/C=C/C1=NN(c2cccc(S(=O)(=O)O)c2)C2(C1)C(Cl)C(=O)N2c1nc2ccccc2s1 (configuration not stated)
TGI [1]: > 100 µM

CC(=O)OCC1OC(n2c3c(c(-c4ccc(Cl)cc4)c(C#N)c2=S)CCCC3)C(OC(C)=O)C(OC(C)=O)C1OC(C)=O (configuration not stated)
TGI [1]: > 100 µM

Nc1ncnc2c1ncn2C1CCC(CP(=O)(O)O)C1 (configuration not stated)
TGI [1]: > 100 µM

C=CC1CN(C(=O)OCC)N(C(=O)OCC)C1CCc1ccccc1 (configuration not stated)
TGI [1]: > 100 µM

COc1nc(N)c(NC(C)=O)c(=O)n1C
TGI [2]: > 100 µM | TGI [8]: > 100 µM | TGI [9]: > 100 µM | TGI [4]: > 100 µM | TGI [14]: > 100 µM | TGI [5]: > 100 µM | TGI [12]: > 100 µM | TGI [1]: > 100 µM | TGI [6]: > 100 µM | TGI [7]: > 100 µM
